Common to all, as to assay type: in vitro ADME
In series [1] the target is T1, recombinant human CYP1A2 (Homo sapiens, UniProt P05177).
T1 construct: purchased Promega (P450-Glo Screening system); host or cells: baculovirus expression system
T1 sequence (P05177 1-516): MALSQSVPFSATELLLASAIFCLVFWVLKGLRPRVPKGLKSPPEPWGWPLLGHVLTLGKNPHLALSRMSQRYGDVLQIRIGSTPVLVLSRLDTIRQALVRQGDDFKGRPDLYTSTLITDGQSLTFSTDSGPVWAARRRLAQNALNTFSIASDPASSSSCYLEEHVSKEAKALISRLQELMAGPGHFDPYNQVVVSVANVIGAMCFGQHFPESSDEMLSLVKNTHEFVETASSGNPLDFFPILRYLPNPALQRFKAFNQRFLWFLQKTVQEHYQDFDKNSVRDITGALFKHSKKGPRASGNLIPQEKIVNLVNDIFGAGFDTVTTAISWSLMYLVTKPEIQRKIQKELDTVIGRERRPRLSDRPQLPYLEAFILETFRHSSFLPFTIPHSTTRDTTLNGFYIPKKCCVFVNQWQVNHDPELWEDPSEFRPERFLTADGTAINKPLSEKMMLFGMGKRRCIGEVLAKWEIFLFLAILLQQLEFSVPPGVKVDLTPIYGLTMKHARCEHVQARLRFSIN
Put plainly: Luminogenic P450-Glo enzyme inhibition assay, CYP1A2. Here is the method: (§1) The assay was carried out using P450-Glo Screening system from Promega (Promega Inc., Madison Wis., USA). It contains recombinant human CYP1A2, CYP2C9, CYP2C19, CYP2D6, and CYP3A4 enzymes in the membranes produced by a baculovirus expression system, specific luminogenic cytochrome enzyme substrates (luciferin 6-methyl ether, luciferin 6-benzyl ether, 6-deoxyluciferin, ethylene glycol ester of 6-deoxyluciferin, and ethylene glycol ester of luciferin 6-methyl ether), negative control membranes, a nicotinamide adenine dinucleotide phosphate hydrogen (NADPH) regeneration system containing NADP+, glucose-6-phosphate, magnesium chloride (MgCl2) and glucose-6-phosphate dehydrogenase (functioning to initiate and sustain the CYP450 reaction by maintaining a non-limiting NADPH system), reaction buffer, luciferin detection reagent, and Luciferin-Free Water. The negative control membranes were devoid of CYP activity. The luminogenic inhibition assays were performed following the protocols from Promega Corp. (Technical Bulletin, P450-Glo Assays, Promega Corp., 2009) and previous studies. […] The 12.5 μL of the luciferin-free water was added individually in both the “untreated” wells representing the values of total CYP activity and the “minus-P450 control” wells representing the values of the CYP-independent background luminescence. Secondly, 12.5 μL of the 4× reaction mixture (containing human CYP membrane preparations, the appropriate luminogenic substrate, and potassium phosphate buffer) was added to the “treated” and the “untreated” wells. The 12.5 μL of the 4× control reaction mixture (containing membrane preparations devoid of CYP enzymes, the appropriate luminogenic substrate, and potassium phosphate buffer) was added to the “minus-P450 control” wells. The plate was preincubated at room temperature (25°C) for 10 min, and then 25 μL of the 2× NADPH regeneration system was added to initiate the reaction. […] The luminescence in all of the samples was measured using a microplate reader as relative light units (RLU) after 20 min incubation to stabilize the luminescent signal. The assay experiments were repeated three independent times. The amount of light produced is directly proportional to the CYP enzyme activity. The net signals from untreated CYP reactions represent total CYP activity (100%). The modulation of the CYP activity by the test compound was determined by comparing the changes from the average net signal of untreated CYP reactions with the changes observed from the test compound. […] USA).

Series [2] addresses T2, recombinant human CYP2C9 (Homo sapiens, UniProt P11712).
T2 construct: purchased Promega (P450-Glo Screening system); host or cells: baculovirus expression system
The series can be described thus: Luminogenic P450-Glo enzyme inhibition assay, CYP2C9. Here is the method: as §1

The target in series [3] is T3, recombinant human CYP3A4 (Homo sapiens, UniProt P08684).
T3 construct: purchased Promega (P450-Glo Screening system); host or cells: baculovirus expression system
The series can be described thus: Luminogenic P450-Glo enzyme inhibition assay, CYP3A4. Here is the method: as §1

Series [4] concerns the target T4, CYP2D6 (Homo sapiens, UniProt P10635).
T4 construct: purchased Promega (P450-Glo Screening system); host or cells: baculovirus expression system
Put plainly: Luminogenic P450-Glo enzyme inhibition assay, CYP2D6. Here is the method:
as §1

The target of series [5] is T5, recombinant human CYP2C19 (Homo sapiens, UniProt P33261).
T5 construct: purchased Promega (P450-Glo Screening system); host or cells: baculovirus expression system
The series can be described thus: Luminogenic P450-Glo enzyme inhibition assay, CYP2C19. Here is the method: as §1

Where [6] appears, read: classified by IC50 value, read-out: inhibitory potency class on CYP1A2.
The mark [7] stands for this setting: recombinant human enzyme, luminescent assay, 30 min incubation, read-out: IC50 CYP1A2 (converted).
Setting [8] is: classified by IC50 value, read-out: inhibitory potency class on CYP2C9.
The mark [9] stands for this setting: recombinant human enzyme, luminescent assay, 30 min incubation, read-out: IC50 CYP2C9 (converted).
Where [10] appears, read: classified by IC50 value, read-out: inhibitory potency class on CYP3A4.
Setting [11] is: recombinant human enzyme, luminescent assay, 30 min incubation, read-out: IC50 CYP3A4 (converted).
[12] abbreviates: classified by IC50 value, read-out: inhibitory potency class on CYP2D6.
The mark [13] stands for this setting: recombinant human enzyme, luminescent assay, 45 min incubation, read-out: IC50 CYP2D6 (converted).
Where [14] appears, read: classified by IC50 value, read-out: inhibitory potency class on CYP2C19.
[15] abbreviates: recombinant human enzyme, luminescent assay, 30 min incubation, read-out: IC50 CYP2C19 (converted).

Read-outs that look alike come from different tables or passages of the source. Where only a bound is given, the exact number is not on record here.

Two molecules from paper PMC4100265, “Inhibition of Human Cytochrome P450 Enzymes by Allergen Removed Rhus verniciflua Stoke Standardized Extract and Constituents” (Evidence-based Complementary and Alternative Medicine : eCAM, 2014) can be followed below.

T2 sequence (P11712 whole entry): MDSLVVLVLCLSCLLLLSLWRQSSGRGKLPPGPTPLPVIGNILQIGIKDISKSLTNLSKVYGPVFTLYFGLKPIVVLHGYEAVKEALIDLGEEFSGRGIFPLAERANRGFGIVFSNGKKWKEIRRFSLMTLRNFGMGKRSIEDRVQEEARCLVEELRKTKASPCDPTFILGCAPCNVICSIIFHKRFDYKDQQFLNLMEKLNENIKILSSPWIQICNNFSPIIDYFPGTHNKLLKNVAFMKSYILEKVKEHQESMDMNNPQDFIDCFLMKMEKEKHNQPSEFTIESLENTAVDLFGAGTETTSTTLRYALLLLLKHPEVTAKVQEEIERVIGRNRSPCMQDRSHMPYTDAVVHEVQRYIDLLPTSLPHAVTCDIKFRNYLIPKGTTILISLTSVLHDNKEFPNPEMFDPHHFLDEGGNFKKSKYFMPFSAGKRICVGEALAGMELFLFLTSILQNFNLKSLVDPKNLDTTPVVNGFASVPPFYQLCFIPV
T5 sequence (P33261 whole entry): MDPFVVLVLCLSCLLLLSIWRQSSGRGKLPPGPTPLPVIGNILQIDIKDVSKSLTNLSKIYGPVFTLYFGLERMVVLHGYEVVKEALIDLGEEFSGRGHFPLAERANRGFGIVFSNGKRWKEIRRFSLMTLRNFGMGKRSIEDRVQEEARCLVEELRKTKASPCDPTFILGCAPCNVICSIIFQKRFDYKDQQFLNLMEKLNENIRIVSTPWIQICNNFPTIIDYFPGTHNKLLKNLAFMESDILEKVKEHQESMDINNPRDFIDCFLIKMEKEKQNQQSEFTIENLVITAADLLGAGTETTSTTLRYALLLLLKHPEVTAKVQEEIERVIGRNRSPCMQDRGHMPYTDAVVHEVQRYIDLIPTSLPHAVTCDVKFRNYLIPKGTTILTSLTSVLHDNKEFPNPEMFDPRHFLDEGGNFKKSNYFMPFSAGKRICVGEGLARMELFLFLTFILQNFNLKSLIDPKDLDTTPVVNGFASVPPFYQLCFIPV
T4 sequence (P10635 whole entry): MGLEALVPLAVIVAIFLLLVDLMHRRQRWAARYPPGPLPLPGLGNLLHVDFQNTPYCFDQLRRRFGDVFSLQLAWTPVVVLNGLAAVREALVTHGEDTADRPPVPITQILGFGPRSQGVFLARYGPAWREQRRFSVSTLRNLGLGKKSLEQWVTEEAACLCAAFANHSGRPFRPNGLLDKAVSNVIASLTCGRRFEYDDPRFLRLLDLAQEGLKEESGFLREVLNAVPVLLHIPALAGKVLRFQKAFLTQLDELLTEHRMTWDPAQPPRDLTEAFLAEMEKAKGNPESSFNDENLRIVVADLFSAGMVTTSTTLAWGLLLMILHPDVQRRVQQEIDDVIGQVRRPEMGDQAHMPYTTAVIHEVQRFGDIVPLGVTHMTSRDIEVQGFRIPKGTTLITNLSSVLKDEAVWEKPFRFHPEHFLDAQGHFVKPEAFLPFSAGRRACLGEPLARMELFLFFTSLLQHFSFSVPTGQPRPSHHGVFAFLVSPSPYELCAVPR
T3 sequence (P08684 whole entry): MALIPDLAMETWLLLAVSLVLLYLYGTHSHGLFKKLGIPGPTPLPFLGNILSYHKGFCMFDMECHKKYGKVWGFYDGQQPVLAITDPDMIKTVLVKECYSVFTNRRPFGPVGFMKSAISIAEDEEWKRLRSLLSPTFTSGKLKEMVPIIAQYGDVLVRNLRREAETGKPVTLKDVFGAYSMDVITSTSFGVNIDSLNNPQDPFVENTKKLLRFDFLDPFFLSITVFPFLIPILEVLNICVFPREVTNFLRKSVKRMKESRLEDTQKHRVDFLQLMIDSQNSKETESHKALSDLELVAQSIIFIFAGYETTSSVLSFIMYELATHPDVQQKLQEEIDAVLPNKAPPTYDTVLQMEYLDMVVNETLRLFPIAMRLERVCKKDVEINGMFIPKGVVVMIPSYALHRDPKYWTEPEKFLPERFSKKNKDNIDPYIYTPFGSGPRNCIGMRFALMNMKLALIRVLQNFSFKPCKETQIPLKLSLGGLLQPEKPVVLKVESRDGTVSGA

For the molecule `O=c1c(O)c(-c2ccc(O)c(O)c2)oc2cc(O)ccc12` [Fisetin, 2-(3,4-dihydroxyphenyl)-3,7-dihydroxychromen-4-one], the IC50 in series [1] (setting [6]) is under 69.9 µM; in series [1] (setting [7]), 1.61 µM; in series [2] (setting [8]) it was under 69.9 µM; in series [2] (setting [9]), 18.9 µM; in series [3] (setting [10]), over 349 µM; in series [3] (setting [11]), 1080 µM. The IC50 is 69.9 to 349 µM in series [4] (setting [12]), 163 µM in series [4] (setting [13]), under 69.9 µM in series [5] (setting [14]) and under 0.00349 µM in series [5] (setting [15]). Further, in series [4] (human, classified by IC50 value, read-out: inhibitory potency class on CYP2D6), the IC50 at 45 min was over 100 µg/mL.
In the case of `O=C1c2ccc(O)cc2OC(c2ccc(O)c(O)c2)C1O` (stereo not drawn) [Fustin, 2-(3,4-dihydroxyphenyl)-3,7-dihydroxy-2,3-dihydrochromen-4-one], the IC50 is over 347 µM in series [1] (setting [6]); 17100 µM in series [1] (setting [7]); over 347 µM in series [2] (setting [8]); 1870 µM in series [2] (setting [9]); over 347 µM in series [3] (setting [10]); 1610 µM in series [3] (setting [11]). The IC50 in series [4] (setting [12]) was over 347 µM; in series [4] (setting [13]), 18500 µM; in series [5] (setting [14]), 69.4 to 347 µM; in series [5] (setting [15]), 223 µM.
